Experimental findings from PubChem BioAssay AID248 (DTP/NCI, 2004) are described below.

For the assay, the system named is L1210 leukemia ip in BDF1 mice, survival T/C. The assay can be described thus: NCI In Vivo Anticancer Drug Screen. Data for tumor model L1210 Leukemia (intraperitoneal) in B6D2F1 (BDF1) mice. Particulars: higher = longer survival. In outline: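 Transplanted-tumor mice were given test agent; controls received vehicle only. Survival readings from the two groups were divided (treated over control).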

Setting [1] is: endpoint: mean survival time, dose: 100.0 mg/kg/injection, schedule: Q04DX003 (ip), vehicle: saline.
Setting [2] is: endpoint: mean survival time, dose: 200.0 mg/kg/injection, schedule: Q04DX003 (ip), vehicle: saline.
Where [3] appears, read: endpoint: mean survival time, dose: 400.0 mg/kg/injection, schedule: Q04DX003 (ip), vehicle: saline.
[4] abbreviates: endpoint: mean survival time, dose: 100.0 mg/kg/injection, schedule: Q01DX009 (ip), vehicle: saline with Tween-80.
The mark [5] stands for this setting: endpoint: mean survival time, dose: 200.0 mg/kg/injection, schedule: Q01DX009 (ip), vehicle: saline with Tween-80.
[6] abbreviates: endpoint: mean survival time, dose: 400.0 mg/kg/injection, schedule: Q01DX009 (ip), vehicle: saline with Tween-80.
Setting [7] is: endpoint: mean survival time, dose: 100.0 mg/kg/injection, schedule: Q01DX001 (ip), vehicle: saline.
[8] abbreviates: endpoint: mean survival time, dose: 200.0 mg/kg/injection, schedule: Q01DX001 (ip), vehicle: saline.
Where [9] appears, read: endpoint: mean survival time, dose: 400.0 mg/kg/injection, schedule: Q01DX001 (ip), vehicle: saline.
The mark [10] stands for this setting: endpoint: mean survival time, dose: 100.0 mg/kg/injection, schedule: Q04DX003 (ip), vehicle: saline with Tween-80.
[11] abbreviates: endpoint: mean survival time, dose: 200.0 mg/kg/injection, schedule: Q04DX003 (ip), vehicle: saline with Tween-80.
[12] abbreviates: endpoint: mean survival time, dose: 400.0 mg/kg/injection, schedule: Q04DX003 (ip), vehicle: saline with Tween-80.

Several values for one entry are separate records, joined by “and”; a condition that tells them apart may be missing. Identical values can stand only once. Inconclusive results and toxic doses are left out.

As to `COC(=O)Nc1cccc(-c2nc3ccc(NC(=O)OC)cc3c(=O)n2-c2ccccc2)c1`, the T/C was 94 % of control and 98 % of control (endpoint: mean survival time, dose: 6.25 mg/kg/injection, schedule: Q01DX009 (ip), vehicle: Klucel (hydroxypropylcellulose) (HPC)); 97 % of control and 101 % of control (endpoint: mean survival time, dose: 12.5 mg/kg/injection, schedule: Q01DX009 (ip), vehicle: Klucel (hydroxypropylcellulose) (HPC)); 102 % of control and 88 % of control (endpoint: mean survival time, dose: 25.0 mg/kg/injection, schedule: Q01DX009 (ip), vehicle: Klucel (hydroxypropylcellulose) (HPC)); 113 % of control (endpoint: mean survival time, dose: 25.0 mg/kg/injection, schedule: Q01DX009 (ip), vehicle: other); 93 % of control and 97 % of control (endpoint: mean survival time, dose: 25.0 mg/kg/injection, schedule: Q01DX009 (oral), vehicle: Klucel (hydroxypropylcellulose) (HPC)); 97 % of control (endpoint: mean survival time, dose: 25.0 mg/kg/injection, schedule: Q04DX003 (ip), vehicle: saline). In addition, the T/C is 120 % of control (endpoint: mean survival time, dose: 50.0 mg/kg/injection, schedule: Q01DX009 (ip), vehicle: Klucel (hydroxypropylcellulose) (HPC)); 114 % of control (endpoint: mean survival time, dose: 50.0 mg/kg/injection, schedule: Q01DX009 (ip), vehicle: other); 102 % of control (endpoint: mean survival time, dose: 50.0 mg/kg/injection, schedule: Q01DX009 (oral), vehicle: Klucel (hydroxypropylcellulose) (HPC)); 101 % of control (endpoint: mean survival time, dose: 50.0 mg/kg/injection, schedule: Q04DX003 (ip), vehicle: saline); 97 % of control and 101 % of control (endpoint: mean survival time, dose: 100.0 mg/kg/injection, schedule: Q01DX009 (oral), vehicle: Klucel (hydroxypropylcellulose) (HPC)); 103 % of control and 107 % of control under setting [1]. Besides, the T/C by setting is: (endpoint: mean survival time, dose: 200.0 mg/kg/injection, schedule: Q01DX009 (oral), vehicle: Klucel (hydroxypropylcellulose) (HPC)) 104 % of control and 121 % of control; (endpoint: mean survival time, dose: 200.0 mg/kg/injection, schedule: Q01DX009 (oral), vehicle: other) 105 % of control; under setting [2], 110 % of control; (endpoint: mean survival time, dose: 300.0 mg/kg/injection, schedule: Q01DX009 (oral), vehicle: other) 102 % of control; (endpoint: mean survival time, dose: 400.0 mg/kg/injection, schedule: Q01DX009 (oral), vehicle: Klucel (hydroxypropylcellulose) (HPC)) 116 % of control and 121 % of control; (endpoint: mean survival time, dose: 400.0 mg/kg/injection, schedule: Q01DX009 (oral), vehicle: other) 116 % of control. The T/C is, setting by setting: under setting [3], 110 % of control; (endpoint: mean survival time, dose: 500.0 mg/kg/injection, schedule: Q01DX009 (oral), vehicle: other) 102 % of control; (endpoint: mean survival time, dose: 800.0 mg/kg/injection, schedule: Q01DX009 (oral), vehicle: Klucel (hydroxypropylcellulose) (HPC)) 119 % of control and 120 % of control; (endpoint: median survival time, dose: 25.0 mg/kg/injection, schedule: Q01DX009 (oral), vehicle: saline) 103 % of control; (endpoint: median survival time, dose: 50.0 mg/kg/injection, schedule: Q01DX009 (oral), vehicle: saline) 102 % of control; (endpoint: median survival time, dose: 100.0 mg/kg/injection, schedule: Q01DX009 (oral), vehicle: saline) 104 % of control. Besides, the T/C is, setting by setting: (endpoint: median survival time, dose: 100.0 mg/kg/injection, schedule: Q04DX003 (ip), vehicle: other) 158 % of control; (endpoint: median survival time, dose: 100.0 mg/kg/injection, schedule: Q04DX003 (ip), vehicle: saline) 185 % of control; (endpoint: median survival time, dose: 200.0 mg/kg/injection, schedule: Q01DX009 (oral), vehicle: saline) 104 % of control; (endpoint: median survival time, dose: 200.0 mg/kg/injection, schedule: Q04DX003 (ip), vehicle: Klucel (hydroxypropylcellulose) (HPC)) 158 % of control; (endpoint: median survival time, dose: 200.0 mg/kg/injection, schedule: Q04DX003 (ip), vehicle: other) 119 % of control; (endpoint: median survival time, dose: 200.0 mg/kg/injection, schedule: Q04DX003 (ip), vehicle: saline with Tween-80) 154 % of control. Moreover, the T/C (endpoint: median survival time, dose: 200.0 mg/kg/injection, schedule: Q04DX003 (oral), vehicle: saline) is 113 % of control; the T/C (endpoint: median survival time, dose: 300.0 mg/kg/injection, schedule: Q04DX003 (oral), vehicle: saline) is 123 % of control; the T/C (endpoint: median survival time, dose: 400.0 mg/kg/injection, schedule: Q04DX003 (ip), vehicle: Klucel (hydroxypropylcellulose) (HPC)) is 178 % of control; the T/C (endpoint: median survival time, dose: 400.0 mg/kg/injection, schedule: Q04DX003 (ip), vehicle: saline with Tween-80) is 190 % of control; the T/C (endpoint: median survival time, dose: 400.0 mg/kg/injection, schedule: Q04DX003 (oral), vehicle: saline) was 112 % of control.

For the compound `O=C1OC(c2ccccc2)(c2ccccc2)Cc2ccccc21`, the T/C by setting is: under setting [4], 97 % of control; (endpoint: mean survival time, dose: 100.0 mg/kg/injection, schedule: Q04DX003 (ip), vehicle: Klucel (hydroxypropylcellulose) (HPC)) 93 % of control; under setting [5], 106 % of control; under setting [6], 95 % of control; (endpoint: mean survival time, dose: 400.0 mg/kg/injection, schedule: Q04DX003 (ip), vehicle: Klucel (hydroxypropylcellulose) (HPC)) 86 % of control.

`CCSC(=O)C1OC(n2cnc3c(N)ncnc32)C2OC(C)(C)OC12` (stereo not given): the T/C (endpoint: mean survival time, dose: 100.0 mg/kg/injection, schedule: Q01DX005 (ip), vehicle: saline) was 100 % of control and the T/C (endpoint: mean survival time, dose: 200.0 mg/kg/injection, schedule: Q01DX005 (ip), vehicle: saline) is 102 % of control.

Consider `C/C(=N/NC(N)=O)c1cccc([N+](=O)[O-])c1`, for which the T/C was 89 % of control under setting [7], 89 % of control under setting [8] and 93 % of control under setting [9].

On to `COC(=O)CSc1ncc2cnccn12`, for which the T/C is, setting by setting: (endpoint: mean survival time, dose: 100.0 mg/kg/injection, schedule: Q01DX009 (ip), vehicle: water) 105 % of control; (endpoint: mean survival time, dose: 100.0 mg/kg/injection, schedule: Q04DX003 (ip), vehicle: water) 119 % of control; (endpoint: mean survival time, dose: 200.0 mg/kg/injection, schedule: Q01DX009 (ip), vehicle: water) 98 % of control; (endpoint: mean survival time, dose: 200.0 mg/kg/injection, schedule: Q04DX003 (ip), vehicle: water) 98 % of control; (endpoint: mean survival time, dose: 400.0 mg/kg/injection, schedule: Q01DX009 (ip), vehicle: water) 98 % of control; (endpoint: mean survival time, dose: 400.0 mg/kg/injection, schedule: Q04DX003 (ip), vehicle: water) 104 % of control.

As to `O=C1C=CC(=O)N1c1ccc(F)cc1` (tested in a mixture with another compound), the T/C was 86 % of control (endpoint: mean survival time, dose: 100.0 mg/kg/injection, schedule: Q04DX003 (ip), vehicle: acetone); 97 % of control (endpoint: mean survival time, dose: 100.0 mg/kg/injection, schedule: Q04DX003 (ip), vehicle: other); 86 % of control (endpoint: mean survival time, dose: 200.0 mg/kg/injection, schedule: Q04DX003 (ip), vehicle: acetone); 86 % of control (endpoint: mean survival time, dose: 200.0 mg/kg/injection, schedule: Q04DX003 (ip), vehicle: other); 87 % of control and 95 % of control (endpoint: mean survival time, dose: 400.0 mg/kg/injection, schedule: Q04DX003 (ip), vehicle: other).

Take `O=C(O)C1CC(c2ccc(Cl)cc2)OC1=O` (stereo not given): the T/C was 101 % of control under setting [1], 104 % of control under setting [2] and 101 % of control under setting [3].

For `CC(C)C(CN)(CCCCN1CCOCC1)c1cccc2ccccc12` (stereo not given), the T/C is 100 % of control under setting [10], 95 % of control under setting [11] and 95 % of control under setting [12].

Consider `O=C(O)CNC(=O)c1ccccc1C(=O)NCC(=O)OCc1ccccc1`, for which the T/C by setting is: (endpoint: mean survival time, dose: 50.0 mg/kg/injection, schedule: Q01DX001 (ip), vehicle: saline) 94 % of control; under setting [7], 91 % of control; under setting [8], 91 % of control; under setting [9], 97 % of control.

As to `O=C(Nc1ccccc1)N(Cc1ccccc1)c1ccccc1`, the T/C under setting [4] is 90 % of control; the T/C under setting [10] is 101 % of control; the T/C under setting [5] is 89 % of control; the T/C under setting [11] is 101 % of control; the T/C under setting [6] was 96 % of control; the T/C under setting [12] was 86 % of control.

Take `NC1=Nc2ccccc2CS1`: the T/C runs as follows: (endpoint: mean survival time, dose: 18.8 mg/kg/injection, schedule: Q04DX003 (ip), vehicle: saline) 95 % of control; (endpoint: mean survival time, dose: 37.5 mg/kg/injection, schedule: Q04DX003 (ip), vehicle: saline) 101 % of control.

In the case of `C#CC(O)(c1ccccc1)c1ccccc1`, the T/C under setting [7] is 103 % of control, the T/C under setting [8] was 107 % of control and the T/C under setting [9] was 100 % of control.

On to `COC(=O)C1C2CC3OC(=O)C1(C)C3C2` (stereo not given), for which the T/C was 103 % of control under setting [7], 98 % of control under setting [8] and 97 % of control under setting [9].
